For one data set, the target named is T1, human TLR7 (Homo sapiens, UniProt Q9NYK1).
T1 construct: expressed in transfected cells; host or cells: HEK cell line (HEK293, as in the primary assay)
T1 sequence (Q9NYK1 27-1049): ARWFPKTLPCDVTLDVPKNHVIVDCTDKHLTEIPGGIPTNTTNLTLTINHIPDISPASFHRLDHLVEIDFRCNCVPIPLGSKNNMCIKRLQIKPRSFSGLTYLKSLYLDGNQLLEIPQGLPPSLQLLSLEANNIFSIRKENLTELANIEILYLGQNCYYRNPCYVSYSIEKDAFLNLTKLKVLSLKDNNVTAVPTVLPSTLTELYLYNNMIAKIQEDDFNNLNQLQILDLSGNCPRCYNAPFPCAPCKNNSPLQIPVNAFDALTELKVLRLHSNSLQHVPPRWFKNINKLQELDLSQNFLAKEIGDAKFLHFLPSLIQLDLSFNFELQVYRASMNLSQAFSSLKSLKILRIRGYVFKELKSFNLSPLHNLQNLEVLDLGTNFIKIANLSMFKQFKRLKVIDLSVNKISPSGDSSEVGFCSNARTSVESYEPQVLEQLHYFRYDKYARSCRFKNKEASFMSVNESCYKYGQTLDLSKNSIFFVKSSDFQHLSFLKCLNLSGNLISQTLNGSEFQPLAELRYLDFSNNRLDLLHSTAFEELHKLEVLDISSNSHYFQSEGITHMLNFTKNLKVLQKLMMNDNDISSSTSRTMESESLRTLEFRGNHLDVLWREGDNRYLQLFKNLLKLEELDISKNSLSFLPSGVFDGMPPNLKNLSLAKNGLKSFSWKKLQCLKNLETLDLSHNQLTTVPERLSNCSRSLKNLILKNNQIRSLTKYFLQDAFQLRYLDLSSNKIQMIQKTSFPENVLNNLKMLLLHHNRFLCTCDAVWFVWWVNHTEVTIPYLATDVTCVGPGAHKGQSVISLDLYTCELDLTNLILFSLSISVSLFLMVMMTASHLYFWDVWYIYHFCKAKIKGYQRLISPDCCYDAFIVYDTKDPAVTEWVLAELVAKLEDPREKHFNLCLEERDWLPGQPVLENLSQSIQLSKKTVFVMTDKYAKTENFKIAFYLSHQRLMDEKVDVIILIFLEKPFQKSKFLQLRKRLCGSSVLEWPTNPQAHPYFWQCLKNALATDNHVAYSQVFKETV
Briefly: HEK/TLR7 activation assay (R848 stimulation). The format is cell-based. As to conditions: HEK cells transfected with human TLR7. As for the experimental part:
(1) HEK/TLR7Activation Assay: The same compounds were tested in the same way as the primary assay with the following differences. The plasmid used to transfect the HEK cell line encoded for human TLR7 instead of TLR9, and R848 was used to stimulate the cells instead of Oligo CpG 2006.

In data set [1] the test system is mouse spleen IL-6 production in response to Oligo CpG 1668. Briefly: Splenocyte CpG 1668 assay (IL-6 ELISA). To be noted: mouse splenocytes, Oligo CpG 1668, 72 hrs. The format is cell-based. Here is the method:
(2) Splenocyte CpG 1668 Assay: Some of the compounds tested in the primary assay were also assayed for suppression of mouse spleen IL-6 production in response to stimulation with Oligo CpG 1668, a synthetic phosphorothioate oligonucleotide (Krieg et al. Nature. 374:546-9 (1995)), with nucleotide sequence [NT] (SEQ ID NO:2). Each compound was added to dissociated splenocytes before addition of stimulatory oligonucleotide. Cells were stimulated in culture for 72 hrs and the supernatant was removed for ELISA analysis of IL-6 level. Here the IC50 is defined as the concentration of compound that suppresses cytokine production to 50% of that observed in the absence of compound, i.e., full stimulation.

The test system of data set [2] is serum IL-6 after s.c. oligo CpG 1668 challenge. Briefly: In vivo short term CpG stimulation assay (serum IL-6). Further details: species or system mice. To be noted: for inhibition in vivo at 20 mg/kg: Mus musculus, po, 2 h, mice, oral in water, s.c. 30 micrograms oligo CpG 1668 within 90 minutes, serum two hours later, repeat assays separated by commas, read-out: Percent short-term IL-6 suppression; for suppression of IL-6 (Table 3): 1.5 hours after oral administration of 20 mg/kg. As for the experimental part: Short Term CpG Stimulation Assay: Compounds identified as having potency in the HEK/TLR9 and splenocyte CpG 1668 assays described in Example 9, above, were tested in an in vivo short term CpG stimulation assay. Mice were orally administered compound in water, and challenged within 90 minutes by subcutaneous (s.c.) injection of 30 micrograms of oligo CpG 1668. Two hours later serum was taken and assayed for IL-6 using ELISA analysis. Results from assays repeated on different dates are set forth as multiple numbers separated by commas.

Data set [3] relates to human PBMC α-interferon response to Oligo CpG 2216. Briefly: PBMC CpG 2216 assay (α-interferon ELISA). Format: cell-based. To be noted: Oligo CpG 2216, 72 hrs, read-out: PBMC CpG2216 IC50. Here is the method:
(4) PBMC CpG 2216 Assay: A subset of compounds tested as described above were also assayed for suppression of human peripheral blood mononuclear cells (PBMC) α-interferon response to stimulation with Oligo CpG 2216, a synthetic oligo phosphorothioate/phosphodiester oligonucleotide (Vollmer et al. Eur J. Immunol. 34:251-62 (2004)), with nucleotide sequence 5′-ggG GGA CGA TCG TCg ggg gG-3′ (small letters indicate phosphorothioate linkages, all others are phosphodiester) (SEQ ID NO:3). Each compound was added to […] from healthy volunteer donors before addition of stimulatory oligonucleotide. Cells were stimulated in culture for 72 hrs and the supernatant was removed for ELISA analysis of α-interferon level was performed using a VeriKine™ Human IFN-Alpha ELISA kit (Pestka Biomedical Laboratories, N.J.).

In data set [4] the test system is lymph node IL-6 release on CpG 1668 stimulation. Briefly: Lymph node response: in vivo dosing, ex vivo CpG 1668 stimulation, IL-6 ELISA. As to conditions: for IL-6 release in the lymph nodes: mice, oral 20 mg/kg or 60 mg/kg daily for two weeks, ex vivo CpG 1668 1 μg/ml 72 hrs. The arrangement: species or system mice. As for the experimental part:
Mice were orally administered one of those two compounds or hydroxychloroquine (“HCQ”) at either 20 mg/kg or 60 mg/kg daily for two weeks. After in vivo dosing, lymph nodes were removed and stimulated in vitro with CpG 1668 at 1 μg/ml for 72 hrs, after which supernatants were removed and assayed by ELISA for IL-6. Levels of dosing are indicated after each compound name appearing in the Figure.

In the next data set the test system is NZBWF1/J mice. The experiment in a line: NZBWF1/J spontaneous lupus model. To be noted: for anti-dsDNA: 16 weeks of treatment, 20 mg/kg or 60 mg/kg p.o.; for body weight: after 3 to 4 months of dosing; for distribution of ANA scores: after 12 weeks of treatment. Format: in vivo. Here is the method:
An in vivo study of Compound 23 and Compound 30 was conducted in an NZBWF1/J mouse model. Mice were obtained from Jackson Laboratories, divided into groups of 12, and dosed orally with compounds in water five days a week beginning at 5 months of age.

“Also recorded” adds a separate entry of the source.

The values that follow come from US8354400B2, “Benzoxazole compounds and methods of use” (Eisai R&D Co., Ltd., priority 2008, dated 2013).

The term IC50 denotes the midpoint of a concentration-inhibition curve. Take `CN(C)CCN(C)CCCOc1ccc(-c2nc3ccc(OCCCN(C)CCN(C)C)cc3o2)cc1` [Compound 22]: the figures for the IC50 (against human TLR7; in data set [1]) were 500 nM and 10 nM, respectively. Besides, in data set [2], the inhibition in vivo at 20 mg/kg was determined as 36%.

Regarding `CN1CCCN(CCCOc2ccc(-c3nc4ccc(OCCCN5CCCN(C)CC5)cc4o3)cc2)CC1` [Compound 14], the 50% inhibitory concentration (IC50) on human TLR7 was 620 nM; in data set [1] it was 4 nM. The “suppression of IL-6 (Table 3)” value in data set [2] is reported as “No suppression”. The inhibition in vivo at 20 mg/kg in data set [2] is 0%.

On to `c1cc(-c2nc3ccc(OCCCN4CCC(N5CCCC5)CC4)cc3o2)ccc1OCCCN1CCC(N2CCCC2)CC1` [Compound 20], for which the results for the IC50 (on human TLR7; in data set [1]; in data set [3]) were 1820 nM, 6 nM and 700 nM, respectively. Moreover, the “suppression of IL-6 (Table 3)” value in data set [2] is on record as “No suppression”. Besides, in data set [2], the inhibition in vivo at 20 mg/kg came to 0%.

For the compound `CN(C)[C@@H]1CCN(CCCOc2ccc(-c3nc4ccc(OCCCN5CC[C@@H](N(C)C)C5)cc4o3)cc2)C1` [Compound 16], the IC50 at human TLR7 amounted to 430 nM; in data set [1], 8 nM; in data set [3], 400 nM. In addition, the inhibition in vivo at 20 mg/kg in data set [2] was 50%.

Turning to `CN1CCN(c2ccc(CNCCCOc3ccc(-c4nc5ccc(OCCCNCc6ccc(N7CCN(C)CC7)cc6)cc5o4)cc3)cc2)CC1` [Compound 11], the IC50 at human TLR7 stood at 470 nM; in data set [1], 2 nM; in data set [3] it was 600 nM.

Regarding `CCN(CC)CCNCCCOc1ccc(-c2nc3ccc(OCCCNCCN(CC)CC)cc3o2)cc1` [Compound 12], the IC50 came out at 780 nM on human TLR7, 4 nM in data set [1] and 500 nM in data set [3].

Turning to `CCN(CC)CCN(C)CCCOc1ccc(-c2nc3ccc(OCCCN(C)CCN(CC)CC)cc3o2)cc1` [Compound 31], the concentration for half-maximal inhibition (IC50) against human TLR7 was 440 nM; in data set [1] it was 6 nM; in data set [3] it was 200 nM.

`CN(C)CCCOc1ccc(-c2nc3ccc(OCCCN(C)C)cc3o2)cc1` [Compound 2]: in data set [4], the “IL-6 release in the lymph nodes” value was “suppressed IL-6 release”. Further, the IC50 was 2210 nM against human TLR7, 48 nM in data set [1] and 500 nM in data set [3].

For the compound `c1cc(CN2CCOCC2)ccc1CNCCCOc1ccc(-c2nc3ccc(OCCCNCc4ccc(CN5CCOCC5)cc4)cc3o2)cc1` [Compound 13], the IC50 turned out to be 460 nM against human TLR7 and 3 nM in data set [1]. In addition, in data set [2], the inhibition in vivo at 20 mg/kg stood at 40%.

For `c1cc(-c2nc3ccc(OCCCN4CCCCC4)cc3o2)ccc1OCCCN1CCCCC1` [Compound 30], on human TLR7, half-maximal inhibition (IC50) was put at 1140 nM. Besides, half-maximal inhibition in data set [1] (IC50) required 25 nM. In the data set on NZBWF1/J mice (NZBWF1/J mice), the “histological examination of muscle, brain, kidney and spleen (hematoxylin and eosin)” value was “no obvious pathology”; the anti-dsDNA entry is reported as “Neither of the compounds tested in this study, Compound 23 or Compound 30, showed an effect on anti-dsDNA”; the body weight result is “dose-related weight loss”; the “distribution of ANA scores” value is “no effect”. Besides, the “anti-dsDNA at high dose” value in the data set with NZBWF1/J mice (NZBWF1/J mice, 60 mg/kg p.o.) is “some suppression of anti-dsDNA at the high dose of 60 mg/kg, but, this was not statistically significant”. The inhibition in vivo at 20 mg/kg in data set [2] was found to be 93%. For the same compound, the IC50 in data set [3] is 500 nM.

`c1cc(-c2nc3ccc(OCCCN4CCCC4)cc3o2)ccc1OCCCN1CCCC1` [Compound 23]: in data set [4] (20 mg/kg oral daily for two weeks), the “IL-6 release in the lymph nodes, low dose” value was “particularly high levels of suppression”. Moreover, the “IL-6 release in the lymph nodes” value in data set [4] is reported as “suppressed IL-6 release”. This compound also came in with a 50% inhibitory concentration (IC50) against human TLR7 of 1550 nM. Also, in data set [1], 18 nM corresponded to half-maximal inhibition (IC50). Besides, the proteinuria entry in the data set on NZBWF1/J mice (NZB/W mice) was “no effect”. Moreover, in the data set with NZBWF1/J mice (NZBWF1/J mice), the “histological examination of muscle, brain, kidney and spleen (hematoxylin and eosin)” value is “no obvious pathology”; the anti-dsDNA entry is “Neither of the compounds tested in this study, Compound 23 or Compound 30, showed an effect on anti-dsDNA; also recorded: no effect”; the body weight result is “dose-related weight loss”; the “distribution of ANA scores” value is on record as “no effect”. Also, the inhibition in vivo at 20 mg/kg in data set [2] is 91%. Moreover, the IC50 in data set [3] was 600 nM.

With `CN(C)CCCN(C)CCCOc1ccc(-c2nc3ccc(OCCCN(C)CCCN(C)C)cc3o2)cc1` [Compound 27], the values for the concentration for half-maximal inhibition (IC50) (at human TLR7; in data set [1]) were 980 nM and 4 nM, respectively. The inhibition in vivo at 20 mg/kg in data set [2] was determined as 30%.
